Laboratory results reported in patent EP0038572A1, “1-Nitro-9-hydroxyalkylaminoacridines or their salts” (priority 1980, dated 1981).

Legend:
[1] = Long-term toxicity evaluations (3 months); format: in vivo, mice, rats and rabbits
Experimental: (§1) Pharmacological examination of the compound C-857 was carried out in mice, rats and rabbits. The acute, subacute, and long-term toxicity were studied in rats and rabbits (orally and intraperitoneally) and in mice (intraperitoneally). […] In the subacute toxicity studies (3 weeks) 1/60 and 1/120 of LD50 were considered; in the long-term toxicity evaluations (3 months) - 1/200 and 1/400 of LD50.
The preparation C-857 was found not to change the spleen-liver index.
No changes of urea and creatinine content were found.

[2] = Vomiting effect in pigeons; format: in vivo
[3] = test system: Crocker sarcoma (Sa-180); test: Growth inhibition of Crocker sarcoma (Sa-180) in mice; format: in vivo; details: intraperitoneally, tumor weight vs control
Experimental: The growth inhibition of Crocker sarcoma (Sa-180) in mice.
For these experiments three-months old mice of about 25 g in weight were used. Each was inoculated with mouse sarcoma (Sa-180) and then they were divided into groups: a group of 10 control mice, and two to four test groups of 7 mice each.
The compounds to be investigated were administered intraperitoneally in appropriate doses after previous determination of maximum tolerance dose.
The percent difference between the mean weight of tumors isolated from control and test mice was accepted as a criterion for the evaluation of antineoplastic activity of the compounds, taking into account the toxic effects.
After doses of between 0.2-0.8 mg/kg the percent of inhibition was 44-86% respectively. Similarly, for the preparation allocated the code number C-934, i.e. 1-nitro-9-(hydroxybutylamino)acridine hydrochloride, after doses of between 0.2-0.4 mg/kg percent of inhibition was 45-60 % respectively.

[4] = Subacute toxicity studies (3 weeks); format: in vivo, mice, rats and rabbits
Experimental: as §1
About 15-40 % of total number of mice died after a dose of 1/120 of LD50. The increase in the number of leucocytes (particularly in rabbits) and decrease in relative number of lymphocytes were observed. However, no changes in the number of red cells were found. […] The preparation C-857 induced some drop of the urine level in rabbits.

[5] = Immunosuppressive action (contact allergy, local transplant-host reaction, post adjuvant multiarticular inflammation tests); format: in vivo; details: appears only after the total dose corresponding to 1/5 of LD50
Excerpt: (§2) In a dose corresponding to 1/2 of LD50 it inhibits the spontaneous mobility and shortens hexobarbital anaesthesia. […] Its immunosuppresive action measured in contact allergy tests, local transplant-host reaction tests and post adjuvant multiarticular inflammation is minimal and appears only after the total dose corresponding to 1/5 of LD50.

[6] = test system: cells forming colonies in marrow; parameters: species or system mice; details: mouse, in vivo
Excerpt: The effect of action of compound C-857 is similar to that of Bleomicine which is non-toxic for marrow.

[7] = Acute toxicity in rabbits; details: rabbit, in vivo, route not given
Experimental: as §1

[8] = General pharmacological examination (circulatory, spasmolytic, central nervous system); format: in vivo, mice, rats and rabbits
Experimental: as §1, §2

[9] = Acute toxicity in rats; details: rat, in vivo, iv, intravenously
[10] = Acute toxicity in mice; format: in vivo; details: intraperitoneally
Excerpt: The acute, subacute, and long-term toxicity were studied in rats and rabbits (orally and intraperitoneally) and in mice (intraperitoneally).

[11] = dose corresponding to 1/2 of LD50
[12] = intravenously, doses increasing to 20 mg/kg

Cl.O=[N+]([O-])c1cccc2nc3ccccc3c(NCCO)c12 [Example C-857, 1-nitro-9-(2-hydroxyethylamino)-acridine hydrochloride]
general changes in long-term toxicity observation ([1]; 3 months, 1/200 and 1/400 of LD50): decrease in physical activity, lack of thirst or occasional diarrhoea | local action ([1]; administrated intraperitoneally): locally irritating action | leucocytes (hematologic studies) ([1]; in rabbits and rats): leucocytosis | relative content of eosinophis ([1]; in rabbits and rats): decrease | value of hematocrit ([1]; in rabbits, hematologic studies): decrease | activity of AspAT and ALAT enzymes ([1]; in vivo): no changes | activity of alkaline phosphatase ([1]; in vivo): Slight changes | urea and creatinine content ([1]; in vivo): No changes | changes in liver and kidneys ([1]; long-term): Insignificant changes | changes in thymus gland and intestine ([1]; long-term): no changes | spleen-liver index ([1]; long-term): not to change | vomiting effect [2]: did not exert vomiting effect | percent of inhibition ([3]; doses of between 0.2-0.8 mg/kg): 44-86% | effects observed in the subacute toxicity investigations ([4]; 3 weeks, 1/60 and 1/120 of LD50): moult, dyspndea, lack of thirst, diarrhoea, and loss of body weight | total number of mice died ([4]; mice, dose of 1/120 of LD50, subacute): 15-40% | urine level ([4]; rabbits, subacute): some drop | Liver and kidney function tests ([4]; subacute): no pathological abnormalities | histologic studies, findings ([4]; subacute): nectrotic inflammation of the liver capsule and peritoneum of intestine wall | histologic studies, interneal organs (liver, kidney, thymus gland) ([4]; subacute): No pathological abnormalities | number of red cells ([4]; subacute): no changes | relative number of lymphocytes ([4]; subacute): decrease | number of leucocytes ([4]; subacute, particularly in rabbits): increase | immunosuppresive action [5]: minimal | myclo- toxic effect on cells forming colonies in marrow [6]: not to produce myclo- toxic effect | LD50 [7]: 11.4 mg/kg | hexobarbital anaesthesia [8, 11]: shortens | spontaneous mobility [8, 11]: inhibits | analgestic or anti-conclusive activity ([8]; in vivo): does not show any | effect on central nervous system ([8]; in vivo): weak and irregular | effect on the circulatory system [8, 12]: did not exert any significant effect | spasmolytic action [8, 12]: weak | LD50 [9]: 9.2 mg/kg | maximal tolerated dose, LD10 [10]: 2.5 mg/kg | LD50 ([10]; mouse, in vivo, ip): 10.6 mg/kg

Cl.O=[N+]([O-])c1cccc2nc3ccccc3c(NCCCCO)c12 [Example C-934, 1-nitro-9(4-hydroxybutylamino)acridine hydrochloride]
percent of inhibition ([3]; doses of between 0.2-0.4 mg/kg): 45-60%
